In PubChem BioAssay AID298 (DTP/NCI, 2004):
Where “and” joins values, the source holds several entries; their conditions need not be identical. Equal entries are not always repeated. Results filed as inconclusive are left out.

System: MX-1 breast xenograft, intrarenal, nude mice, tumor weight
Test: NCI In Vivo Anticancer Drug Screen. Data for tumor model Human Mammary Carcinoma MX-1 Xenograft (intrarenal inoculation) in NU/NU BALB/C (nude) mice
Details: endpoint: mean tumor weight change, higher = larger tumour
In short: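 Antitumor activity is expressed as a T/C ratio. The treated group's tumor size or survival is compared against the vehicle-treated control group in mice bearing transplanted tumors.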

[1] = dose: 200.0 mg/kg/injection, schedule: Q04DX003 (ip), vehicle: Klucel (hydroxypropylcellulose) (HPC)
[2] = dose: 400.0 mg/kg/injection, schedule: Q04DX003 (ip), vehicle: Klucel (hydroxypropylcellulose) (HPC)
[3] = dose: 100.0 mg/kg/injection, schedule: Q04DX003 (ip), vehicle: Klucel (hydroxypropylcellulose) (HPC)
[4] = dose: 150.0 mg/kg/injection, schedule: Q04DX003 (ip), vehicle: saline with Tween-80
[5] = dose: 300.0 mg/kg/injection, schedule: Q04DX003 (ip), vehicle: saline with Tween-80

For `CCOC(=O)Nc1cc2c(c(N)n1)N=C(c1ccc3ccccc3c1)CN2`, the T/C (dose: 3.75 mg/kg/injection, schedule: Q04DX003 (ip), vehicle: saline with Tween-80) was 73 % of control, the T/C (dose: 7.5 mg/kg/injection, schedule: Q04DX003 (ip), vehicle: saline with Tween-80) was 81 % of control and the T/C (dose: 15.0 mg/kg/injection, schedule: Q04DX003 (ip), vehicle: saline with Tween-80) was 44 % of control. For the same compound, the T/C (dose: 30.0 mg/kg/injection, schedule: Q04DX003 (ip), vehicle: saline with Tween-80) was 34 % of control.

With `COc1ccc(CC2C(=O)NC(C)C(=O)N(C)C3Cc4ccc(cc4)Oc4cc(ccc4O)CC(C(=O)NC(C)C(=O)NC(C)C(=O)N2C)N(C)C3=O)cc1` (centres undefined) the T/C (dose: 8.0 mg/kg/injection, schedule: Q04DX003 (sc), vehicle: saline with Tween-80) was 27 % of control, the T/C (dose: 16.0 mg/kg/injection, schedule: Q04DX003 (sc), vehicle: saline with Tween-80) was 25 % of control and the T/C (dose: 32.0 mg/kg/injection, schedule: Q04DX003 (sc), vehicle: saline with Tween-80) was 3 % of control.

In the case of `Clc1cccc(Cl)c1C(Nc1nncs1)Nc1nncs1`, the T/C (dose: 100.0 mg/kg/injection, schedule: Q04DX003 (ip), vehicle: saline with Tween-80) is reported as 94 % of control, the T/C (dose: 200.0 mg/kg/injection, schedule: Q04DX003 (ip), vehicle: saline with Tween-80) is reported as 73 % of control and the T/C (dose: 400.0 mg/kg/injection, schedule: Q04DX003 (ip), vehicle: saline with Tween-80) is reported as 44 % of control.

`CS(=O)(=O)CS(=O)(=O)OCCF` was tested, and the T/C (dose: 6.25 mg/kg/injection, schedule: Q04DX003 (ip), vehicle: saline) was 104 % of control, the T/C (dose: 12.5 mg/kg/injection, schedule: Q04DX003 (ip), vehicle: saline) was 84 % of control and the T/C (dose: 25.0 mg/kg/injection, schedule: Q04DX003 (ip), vehicle: saline) was 69 % of control.

`CC(=O)NCCSSCCCCS(=O)O` was tested, and the T/C (dose: 150.0 mg/kg/injection, schedule: Q04DX003 (ip), vehicle: saline) was 110 % of control and the T/C (dose: 300.0 mg/kg/injection, schedule: Q04DX003 (ip), vehicle: saline) was 112 % of control.

`CC(C)(C[NH-])C[NH-].[Cl][Pt+2][Cl]` was tested, and the T/C (dose: 1.5 mg/kg/injection, schedule: Q04DX003 (ip), vehicle: water) was 56 % of control and the T/C (dose: 6.0 mg/kg/injection, schedule: Q04DX003 (ip), vehicle: water) was 2 % of control and 3 % of control.

For `CNC(=O)O/N=C(\CN=[N+]=[N-])C(C)(C)C`, the T/C (dose: 0.63 mg/kg/injection, schedule: Q04DX003 (sc), vehicle: saline) was 116 % of control, the T/C (dose: 1.25 mg/kg/injection, schedule: Q04DX003 (sc), vehicle: saline) was 71 % of control and the T/C (dose: 2.5 mg/kg/injection, schedule: Q04DX003 (sc), vehicle: saline) was 84 % of control.

`CNC(=S)SC1=NS(=O)(=O)c2ccccc2N1` was tested, and the T/C [1] was 179 % of control and the T/C [2] was 165 % of control.

For `CO[C@@]12[C@@H]3N[C@@H]3CN1C1=C(C(=O)C(NCC3CCCO3)=C(C)C1=O)[C@@H]2COC(N)=O` (some centres undefined), the T/C (dose: 6.25 mg/kg/injection, schedule: Q04DX003 (ip), vehicle: Klucel (hydroxypropylcellulose) (HPC)) was 43 % of control, the T/C (dose: 12.5 mg/kg/injection, schedule: Q04DX003 (ip), vehicle: Klucel (hydroxypropylcellulose) (HPC)) was 56 % of control and 57 % of control and the T/C (dose: 12.5 mg/kg/injection, schedule: Q04DX003 (ip), vehicle: distilled water + Tween-80) was 1 % of control and 3 % of control. For the same compound, the T/C (dose: 25.0 mg/kg/injection, schedule: Q04DX003 (ip), vehicle: Klucel (hydroxypropylcellulose) (HPC)) was 35 % of control and 59 % of control, the T/C (dose: 50.0 mg/kg/injection, schedule: Q04DX003 (ip), vehicle: Klucel (hydroxypropylcellulose) (HPC)) was 28 % of control and 32 % of control and the T/C (dose: 50.0 mg/kg/injection, schedule: Q04DX003 (ip), vehicle: distilled water + Tween-80) was -4 % of control. The T/C [3] was 14 % of control.

In the case of `CC(=O)OCC1OC(n2cc(CBr)nn2)C(OC(C)=O)C(OC(C)=O)C1OC(C)=O` (centres undefined), the T/C (dose: 25.0 mg/kg/injection, schedule: Q01DX010 (sc), vehicle: saline with Tween-80) is reported as 92 % of control, the T/C (dose: 50.0 mg/kg/injection, schedule: Q01DX010 (sc), vehicle: saline with Tween-80) is reported as 94 % of control and the T/C (dose: 100.0 mg/kg/injection, schedule: Q01DX010 (sc), vehicle: saline with Tween-80) is reported as 95 % of control. The T/C (dose: 200.0 mg/kg/injection, schedule: Q01DX010 (sc), vehicle: saline with Tween-80) was 87 % of control.

In the case of `Cc1ccc2c(c1)n([O-])c1cc(Cl)ccc1[n+]2=O`, the T/C [4] is reported as 84 % of control and 86 % of control and the T/C [5] is reported as 56 % of control and 66 % of control.

In the case of `CCCCCCCCCCC(OC(C)=O)C1CCC(C2CCC(C(O)CCCCCCCCCCCCC3C=C(C)OC3=O)O2)O1` (centres undefined), the T/C (dose: 20.0 mg/kg/injection, schedule: Q04DX003 (sc), vehicle: water) is reported as 80 % of control, the T/C (dose: 40.0 mg/kg/injection, schedule: Q04DX003 (sc), vehicle: water) is reported as 72 % of control and the T/C (dose: 80.0 mg/kg/injection, schedule: Q04DX003 (sc), vehicle: water) is reported as 71 % of control. The T/C (dose: 160.0 mg/kg/injection, schedule: Q04DX003 (sc), vehicle: water) was 70 % of control.

For `O=NN(CCCl)C(=O)NCCO`, the T/C (dose: 3.13 mg/kg/injection, schedule: Q04DX003 (sc), vehicle: water) was 82 % of control, the T/C (dose: 6.25 mg/kg/injection, schedule: Q04DX003 (sc), vehicle: water) was 38 % of control and the T/C (dose: 12.5 mg/kg/injection, schedule: Q04DX003 (sc), vehicle: water) was 7 % of control.

`O=C1C=C2C(=CCOC2O)O1` (centres undefined) was tested, and the T/C (dose: 1.0 mg/kg/injection, schedule: Q04DX003 (sc), vehicle: Klucel (hydroxypropylcellulose) (HPC)) was 87 % of control, the T/C (dose: 2.0 mg/kg/injection, schedule: Q04DX003 (sc), vehicle: Klucel (hydroxypropylcellulose) (HPC)) was 79 % of control and the T/C (dose: 4.0 mg/kg/injection, schedule: Q04DX003 (sc), vehicle: Klucel (hydroxypropylcellulose) (HPC)) was 59 % of control.

In the case of `C=C1C(O)C2(O)OCC34C(CC5C(C)=CC(=O)C(O)C5(C)C23)OC(=O)C(OC(=O)C/C=C/CCCCCCCC)C14` (centres undefined), the T/C (dose: 12.5 mg/kg/injection, schedule: Q04DX003 (ip), vehicle: saline + alcohol) is reported as 38 % of control.

For `O=C1CSC(c2cccs2)N1c1nncs1` (centres undefined), the T/C [3] was 92 % of control, the T/C [1] was 102 % of control and the T/C [2] was 57 % of control. The T/C (dose: 800.0 mg/kg/injection, schedule: Q04DX003 (ip), vehicle: Klucel (hydroxypropylcellulose) (HPC)) was 49 % of control.

For `COc1cc(C2=NCCc3cc4c(cc32)OCO4)cc(OC)c1OC`, the T/C (dose: 75.0 mg/kg/injection, schedule: Q04DX003 (ip), vehicle: saline + alcohol) was 116 % of control and the T/C (dose: 150.0 mg/kg/injection, schedule: Q04DX003 (ip), vehicle: saline + alcohol) was 99 % of control.

For `CN=S(=O)(OCCCCCOS(=O)(=NC)c1ccc(C)cc1)c1ccc(C)cc1` (centres undefined), the T/C (dose: 75.0 mg/kg/injection, schedule: Q04DX003 (sc), vehicle: saline with Tween-80) was 86 % of control and the T/C (dose: 150.0 mg/kg/injection, schedule: Q04DX003 (sc), vehicle: saline with Tween-80) was 61 % of control.

With `CC1C(c2ccccc2)OC(N2CCOCC2)C(C)(C)CN1C` (centres undefined) the T/C [4] was 112 % of control, the T/C [5] was 101 % of control and the T/C (dose: 600.0 mg/kg/injection, schedule: Q04DX003 (ip), vehicle: saline with Tween-80) was 82 % of control.

With `OCC1OC(n2cnc3c(=S)nc[nH]c32)C(O)C1O` (centres undefined) the T/C (dose: 300.0 mg/kg/injection, schedule: Q04DX003 (sc), vehicle: saline) was 86 % of control, the T/C (dose: 600.0 mg/kg/injection, schedule: Q04DX003 (sc), vehicle: saline) was 58 % of control and the T/C (dose: 1200.0 mg/kg/injection, schedule: Q04DX003 (sc), vehicle: saline) was 59 % of control and 75 % of control. The T/C (dose: 1600.0 mg/kg/injection, schedule: Q04DX003 (sc), vehicle: saline) was 49 % of control, the T/C (dose: 2000.0 mg/kg/injection, schedule: Q04DX003 (sc), vehicle: saline) was 65 % of control and the T/C (dose: 2400.0 mg/kg/injection, schedule: Q04DX003 (sc), vehicle: saline) was 23 % of control and 39 % of control.

For `N#Cc1ccc(NN=O)nc1`, the T/C (dose: 12.5 mg/kg/injection, schedule: Q04DX003 (ip), vehicle: other) was 95 % of control, the T/C (dose: 12.5 mg/kg/injection, schedule: Q04DX003 (ip), vehicle: water) was 38 % of control and 41 % of control and the T/C (dose: 25.0 mg/kg/injection, schedule: Q04DX003 (ip), vehicle: other) was 20 % of control. For the same compound, the T/C (dose: 25.0 mg/kg/injection, schedule: Q04DX003 (ip), vehicle: water) was 7 % of control and 9 % of control, the T/C (dose: 50.0 mg/kg/injection, schedule: Q04DX003 (ip), vehicle: other) was 4 % of control and the T/C (dose: 50.0 mg/kg/injection, schedule: Q04DX003 (ip), vehicle: water) was 1 % of control and 12 % of control. For the same compound, the T/C (dose: 100.0 mg/kg/injection, schedule: Q04DX003 (ip), vehicle: other) was -92 % of control and the T/C (dose: 100.0 mg/kg/injection, schedule: Q04DX003 (ip), vehicle: water) was -86 % of control.

For `COc1ccc(-c2cc(C(=O)Nc3cc(C(F)(F)F)cc(C(F)(F)F)c3)c3ccccc3n2)cc1`, the T/C (dose: 150.0 mg/kg/injection, schedule: Q04DX003 (ip), vehicle: DMSO) was 103 % of control, the T/C (dose: 300.0 mg/kg/injection, schedule: Q04DX003 (ip), vehicle: DMSO) was 70 % of control and the T/C (dose: 600.0 mg/kg/injection, schedule: Q04DX003 (ip), vehicle: DMSO) was 78 % of control.
